The text below walks through data of article PMC4537392 (Neuropharmacology, 2015).

In experiment [1] the target is T1, mGlu4 (Rattus norvegicus, UniProt P31423). Briefly: Co-operative assay: enhancement of [3H]3 binding by orthosteric agonists.
Experiment [2] addresses T1, mGlu4. Description: Temperature dependency of [3H]3 binding. To be noted: 10 nM [3H]3, 100 nM Glu, 30 min.
The target of experiment [3] is T1, mGlu4. Description: Ion dependency of [3H]3 binding. The note with it: 10 nM [3H]3, 30 μM L-AP4, Hepes buffer with or without NaCl, MgCl2, KCl, CaCl2.
For experiment [4], the target named is T1, mGlu4. Description: mGlu4 competitive binding assay against [3H]ML128. To be noted: 10 nM compound.

Molecules are shown by their SMILES.

T1 sequence (P31423 33-912): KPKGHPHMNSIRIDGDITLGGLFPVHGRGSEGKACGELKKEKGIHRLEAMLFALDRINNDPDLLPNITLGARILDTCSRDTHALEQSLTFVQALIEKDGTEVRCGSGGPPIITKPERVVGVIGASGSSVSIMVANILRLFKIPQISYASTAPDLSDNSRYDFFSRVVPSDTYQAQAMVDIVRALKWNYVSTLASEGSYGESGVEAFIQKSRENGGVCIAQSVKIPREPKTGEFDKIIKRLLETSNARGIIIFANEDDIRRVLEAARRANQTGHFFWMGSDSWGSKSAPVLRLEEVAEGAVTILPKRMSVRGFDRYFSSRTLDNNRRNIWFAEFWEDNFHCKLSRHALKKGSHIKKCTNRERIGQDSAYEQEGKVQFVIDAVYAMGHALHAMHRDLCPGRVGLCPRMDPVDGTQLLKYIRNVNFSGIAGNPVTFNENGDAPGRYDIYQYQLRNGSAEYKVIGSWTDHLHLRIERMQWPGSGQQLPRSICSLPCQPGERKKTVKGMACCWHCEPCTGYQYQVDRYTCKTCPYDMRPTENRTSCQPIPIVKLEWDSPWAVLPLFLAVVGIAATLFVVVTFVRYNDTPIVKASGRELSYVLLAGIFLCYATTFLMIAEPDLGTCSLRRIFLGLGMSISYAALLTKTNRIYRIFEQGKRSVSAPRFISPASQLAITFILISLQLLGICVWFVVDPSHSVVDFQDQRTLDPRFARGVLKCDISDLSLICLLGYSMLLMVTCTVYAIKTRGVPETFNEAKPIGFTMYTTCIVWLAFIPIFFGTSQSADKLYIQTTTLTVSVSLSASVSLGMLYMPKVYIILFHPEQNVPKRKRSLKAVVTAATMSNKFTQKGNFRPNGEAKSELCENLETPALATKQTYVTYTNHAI

Take `NC(CCP(=O)(O)O)C(=O)O` [compound 2, L-AP4]: the “logEC50 (enhancement of [3H]3 binding by orthosteric agonist)” value at mGlu4 [1] (10 nM [3H]3, CHO cells expressing mGlu4, 30 min room temperature, n=3) is reported as −6.67 (SE 0.05).

In the case of `N[C@@H](CCC(=O)O)C(=O)O` [compound 1, L-Glutamate acid], on mGlu4 [1], the EC50 was 0.832 µM.

With `COc1cc(NC(=O)c2ccccn2)ccc1Cl` [[^3H]3, N-(4-Chloro-3-methoxyphenyl)-2-picolinamide], the “total amount of specific binding at +4 °C and +25 °C” value on mGlu4 [2] was “quite similar at +4 °C and +25 °C”. The “specific binding at higher temperature (+45 °C)” value at mGlu4 [2] (+45 °C) was “drops the specific binding”. Also, on mGlu4 [3], the “ion dependency of specific binding” value is recorded as “related to chloride ion”.

In the case of `O=C(Nc1ccc(N2C(=O)c3cccc(F)c3C2=O)c(Cl)c1)c1ccccn1` [compound 4, N-(3-Chloro-4-(4-fluoro-1,3-dioxo-isoindolin-2-yl)phenyl)-2-picolinamide], the “bound fraction of [3H]3, single concentration assay” value at mGlu4 [4] (higher glutamate concentration, n=9, SE 1.2) was 21.4%; on mGlu4 [4] (lower glutamate concentration, n=9, SE 1.4), 35.4%.

The term EC50 denotes the concentration that produces a half-maximal response.
